Test results published in EPA's ToxValDB 9.5 (doi:10.2903/j.efsa.2018.5211).
≈ marks a conversion by molar mass, not a printed value.

Assays:
[1] = test system: Typhlodromus pyri; experiment: LR50; higher = less toxic; settings: not reported; reproduction
[2] = test system: Aphidius rhopalosiphi; experiment: LR50; higher = less toxic; settings: not reported; mortality
[3] = test system: Tagia sp.; settings: chronic/long-term; duration: 56 days; growth
[4] = test system: Colinus virginianus
[5] = test system: Daphnia magna; settings: chronic/long-term; duration: 21 days; reproduction
[6] = test system: Apis mellifera; settings: acute, duration: 48 hours, mortality
[7] = test system: Canidae; settings: subchronic; duration: 90 days; dermal; Dog Other; organ weight
[8] = test system: Folsomia candida; settings: chronic/long-term; mortality
[9] = test system: Oncorhynchus mykiss
[10] = test system: Neomysis kadiakensis; settings: acute; duration: 48 hours; mortality
[11] = test system: Rattus norvegicus

## COC[C@H](C)N(C(=O)CCl)c1c(C)csc1C [Dimethenamid-P]
[1]
  LR50: > 1.4e+06 mL/ha
[2]
  LR50: 66.3 mL/ha
[3]
  NOEC: 25.4 mg/kg
[4]; acute, oral, mortality
  LD50: 1070 mg/kg-day
[4]; chronic, mortality
  LEL: 107 mg/kg-day
[4]; reproduction developmental
  NOAEL: 114 mg/kg-day
[5]
  NOEC: 0.68 mg/L
[6]; dermal
  LD50: 93.8 µg/piece
[6]; oral, unspecified
  LD50: 119 µg/piece
[7]
  NOAEL: 4.3 mg/kg-day
[8]
  NOEC: 12.5 mg/kg
[9]; acute, duration: 96 hours, mortality
  LC50: 2.6 mg/L (≈ 9.43 µM)
[9]; chronic/long-term, growth
  NOEC: 0.12 mg/L
[10]
  LC50: 3.2 mg/L (≈ 11.6 µM)
[11]; acute, oral, mortality
  LD50: 466 mg/kg-day
[11]; chronic, duration: 2 years, organ weight
  NOAEL: 5 mg/kg-day
[11]; developmental, development
  NOAEL: 25 mg/kg-day
[11]; reproduction developmental, food consumption
  LOAEL: 25 mg/kg-day
